According to patent US20260248731A1, “NON-VIRAL DELIVERY OF SMALL MOLECULE THERAPEUTICS” (BATTELLE MEMORIAL INSTITUTE, priority 2022, published 2026):

Experiments:
[1] = system: macrophage-differentiated THP-1 cells; conditions: background statement; cited from earlier work
murine cancer models = conditions: systemic administration; cited from earlier work
[2] = system: macrophage-differentiated THP-1 cells; conditions: background statement; cited from earlier work; remark: listed apart in the source
RAW264.7 cells = experiment: Cytokine release from RAW264.7 cells, multiplex cytometric bead array; format: cell-based, murine; conditions: 24 hours after treatment
Experimental: Talabostat mesylate (MedChemExpress; TLBST) was reconstituted to 10 mg/mL in deionized water and stored frozen. Prior to use, TLBST was thawed, incubated at 37° C. for 20 mins, and sonicated for 10 minutes. TLBST was serially diluted in pH 7.4, 40 mM Tris, 10 mM MgCl2 buffer to 5 mg/mL and 2.5 mg/mL. Free talabostat controls were prepared in triplicate by diluting and serially diluting the 10, 5, and 2.5 mg/mL TLBST stock in pH 7.4, 40 mM Tris-HCl, 10 mM MgCl2 buffer to generate free TLBST at 1.25, 0.625, and 0.3125 mg/mL. […]
RAW264.7 cells were seeded at 100,000 cells per well of a 96-well plate. […] Twenty-four hours following stimulation, cell culture supernatants were harvested and stored frozen until quantification of lactate dehydrogenase (LDH) by colorimetric enzymatic activity assay, and interleukin 1β (IL-1β), interleukin 18 (IL-18), and interferon β (IFNβ) by multiplex cytometric bead array assay. Percentage LDH release was calculated relative to the maximum LDH released from a lysed cells control. […] MTT signal derived from stimulated cells was quantified by colorimetric enzymatic activity assay. Percentage viability was calculated relative to the MTT signal measured in an untreated cells control. […]

Talabostat mesylate [Free TLBST]
IL-1β release [1]: exhibit both cytotoxicity and IL-1β release | protection in murine cancer models (murine cancer models): potent T and NK cell-dependent protection | cytotoxicity [2]: exhibit both cytotoxicity and IL-1β release | IFNβ in the supernatant (RAW264.7 cells): but not free TLBST is associated with IFNβ secretion
